From the NIST ThermoML archive (doi:10.1016/j.fluid.2010.08.026)
± gives the expanded uncertainty stated by the source.

Key:
[1] = Closed cell (Static) method; for Normal melting temperature: Crystal 1
[2] = Molar enthalpy of transition or fusion

Row | Molar enthalpy of transition or fusion ([2]; Crystal 1, Closed cell (Static) method) [kcal/mol] | Structure (SMILES) | Normal melting temperature [1] [°C] | vapor or sublimation pressure ([1]; 356.86 K, Liquid) [kPa] | Molar enthalpy of transition or fusion ([2]; Crystal, DSC) [kcal/mol]
1 | 5.43 | CC(O)CNCC(C)O (stereo not given) [N-(2-hydroxypropyl)-2-hydroxy-1-propanamine] | 42.7 |  | 
2 |  | CN(CCO)CCO [N-methyldiethanolamine] | -23 | 0.2 | 
3 |  | CC(C)NC(C)C [diisopropylamine] |  |  | 5.43 ± 0.172
